# US12576070B2, “Medicine for improving state of pregnancy, and use thereof” (priority 2014, dated 2026)
# Entries after “also recorded” stand apart in the source; their conditions may differ.
# How the values were obtained:
# [1] = test system: repeated implantation failure (RIF) patients with elevated Th1/Th2 cell ratios; experiment: Tacrolimus treatment of repeated implantation failure (RIF) patients during IVF/ET, prospective cohort study (Example 1); assay type: in vivo, human
# Description: This was a prospective cohort study of treatment for RIF patients (n=42) with elevated peripheral blood Th1 (CD4^+/IFN-γ^+)/Th2 (CD4^+/IL-4^+) cell ratios at the Sugiyama clinic between November 2011 and October 2013. Twenty-five patients were treated with tacrolimus (treatment group) and 17 received no treatment (control group).
# Treatment group continuously received tacrolimus from two days before embryo transfer until the day of the pregnancy test, for a total of 16 days. The daily dose of tacrolimus (1-3 mg) was determined based on the degree of the Th1/Th2 cell ratio.
# A total of 81 patients with a history of 5 or more RIF after IVF/ET cycles were consecutively enrolled in the study at the division of Reproductive Medicine, the Sugiyama clinic, Tokyo, Japan, between November 2011 and February 2014. This study was approved by the Institutional Review Board of the Sugiyama Clinic. A signed informed consent form was obtained from all patients prior to entering the study.
# Study patients were assessed by transvaginal ultrasound, hysterosalpingography, and hysteroscopy before the index ART cycle. None of the participants had submucosal fibroids, endometrial polyps, intrauterine adhesions, congenital anomalies of uterus or hydrosalpinges. In addition, none of the women had any history of autoimmune disease. Pregnant women or women with chronic medical or inflammatory conditions were excluded. Women who miscarried in a former IVF cycle or had IVF cycles, or received vaccination in 3 months were excluded in the study. Women with acquired or inherited thrombophilia were also excluded in this study.
# Blood was drawn between cycle day (CD) 5 and 10 prior to the index ART cycle for the evaluation of a baseline value of Th1/Th2 cell ratios. Forty-two patients had elevated Th1/Th2 cell ratio (≥10.3) and 39 had normal Th1/Th2 cell ratio (≤10.3). […] Blood was drawn between CD5 and CD10 of the menstrual cycle. A Th1/Th2 cell ratio equal to 10.3 or above was classified as an elevated Th1/Th2 cell ratio, which was determined by the mean plus one standard deviation of Th1/Th2 cell ratio levels.
# For the evaluation of a baseline value of Th1/Th2 cell ratios, total 10 ml of venous blood was obtained. Th1 and Th2 cells were determined by detecting the intracellular interferon (IFN)-γ and IL-4 production.
# The specific staining of lymphocytes was performed by incubating whole blood with anti-CD4-PC5 or anti-CD8-PC5-conjugated monoclonal antibodies (mAbs) (Beckman Coulter, Fullerton, Calif, USA). The red blood cells (RBCS) were then removed by lysis (FACS Lysing solution; Becton Dickinson, BD Biosciences, Franklin Lake. N.J., USA) and the lymphocytes were analyzed using flow cytometry (FACSCalibur; Becton Dickson). After surface staining of the activated whole blood samples with anti-CD4-PC5 conjugated mAbs, RBC lysis and specific intracellular staining using FASTIMMUNE™ IFN-γ-FITC/IL-4-PE (Becton Dickinson) were subsequently performed according to the manufacturer's instructions. Th1 cells were defined as CD4^+ lymphocytes with intracellular IFN-γ but without IL-4. Th2 cells were detected as CD4^+ lymphocytes with intracellular IL-4 but without IFN-γ. The ratio of IFN-γ to IL-4 positive Th cells was expressed as the Th1/Th2 cell ratio.
# In 42 patients with elevated Th1/Th2 cytokine ratios (equal or above 10.3), 25 of them were treated with tacrolimus (PROGRAF®, Astellas Pharma, Tokyo; treatment group), and the others (n=17) were not treated (control group) during the index IVF/ET cycles. The patients in the treatment group began tacrolimus two days prior to ET and continued until the day of pregnancy test, for a total of 16 days. […]
# [2] = test system: infertilitas patients with three or more consecutive miscarriages, stillbirths, or intrauterine fetal growth retardations; experiment: Tacrolimus treatment of infertilitas patients from establishment of pregnancy until delivery (Example 2); assay type: in vivo, human
# Description: These patients were a group of patients for whom clear findings of abnormality related to infertility were not recognized with a serological examination that had been performed in advance.
# The patients were evaluated through a transvaginal ultrasound examination, a Fallopian tube patency test, and hysteroscopy before an index ART cycle. Among the participants, no one had submucosal myoma, endometrial polyps, intrauterine adhesion, congenital abnormalities in the uterus, or hydrosalpinx. […] Any women who had experienced miscarriage in the previous IVF cycle, who had received an IVF cycle, or who had received vaccination, all within three months, were excluded from the subjects. Any women with acquired or congenital thrombophilia were excluded from the subjects.
# The analysis was carried out according to the method described in Example 1. However, the determination of the Th1/Th2 cell ratio in a patient was carried out immediately after establishment of pregnancy (the day of confirming establishment of pregnancy). The level of the Th1/Th2 cell ratio was determined according to the average value+1 standard deviation method in the same manner as in Example 1, and a Th1/Th2 cell ratio that was equal to 10.3 or higher than that was classified as an increased Th1/Th2 cell ratio.
# All of the eleven patients were subjected to treatment with tacrolimus in the same manner as in Example 1, except for the duration of administration. […] The duration of administration of tacrolimus was from the time point immediately after establishment of pregnancy was confirmed by a pregnancy test and the Th1/Th2 cell ratio was checked, until the day of delivery, in all cases.
# The treatment was carried out in the same manner as in Example 1.
# The analysis was carried out in the same manner as in Example 1.
# [3] = test system: kidney transplant recipients with tacrolimus exposure during pregnancy; details: cited from earlier work
# [4] = 1 mg daily, n = 12, Th1/Th2 cell ratio ≥10.3 and <13.0
# [5] = 2 mg daily, n = 8, Th1/Th2 cell ratio ≥13.0 and <15.8
# [6] = 3 mg daily, n = 5, Th1/Th2 cell ratio ≥15.8
# [7] = treatment group n = 25, tacrolimus 1-3 mg daily for 16 days
# [8] = treatment group, 15 newborns, mean ± standard deviation
# [9] = treatment group, 15 newborns, mean ± standard deviation, listed as tacrorimus
# [10] = infertilitas patients n = 11, tacrolimus 1-3 mg per day from confirmation of pregnancy until delivery
# [11] = 236 babies born from kidney transplant recipients with tacrolimus exposure during pregnancy
# [12] = kidney transplant recipients with tacrolimus exposure during pregnancy
smiles,measurement,setting,value
"C=CCC1/C=C(\C)CC(C)CC(OC)C2OC(O)(C(=O)C(=O)N3CCCCC3C(=O)OC(/C(C)=C/C3CCC(O)C(OC)C3)C(C)C(O)CC1=O)C(C)CC2OC (centres unmarked) [tacrolimus, 17-Allyl-1,14-dihydroxy-12-[2-(4-hydroxy-3-methoxycyclohexyl)-1-methylvinyl]-23,2 5-dimethoxy-13,19,21,27-tetramethyl-11,28-dioxa-4-azatricyclo[22.3.1.04,9]octacos-18-ene-2,3,10,16-tetraone]",Clinical pregnancy with 1 mg of tacrolimus (%),[1]; [4],83.3%
same,Live birth with 1 mg of tacrolimus (%),[1]; [4],83.3%
same,Clinical pregnancy With 2 mg of tacrolimus,[1]; [5],50.0%
same,Live birth With 2 mg of tacrolimus,[1]; [5],37.5%
same,Clinical pregnancy with 3 mg of tacrolimus,[1]; [6],40.0%
same,Live birth with 3 mg of tacrolimus,[1]; [6],40.0%
same,FET success rate relative to reported success rate (39%) of women under 35,"[1]; FET cycle with tacrolimus, 75% versus 2011 CDC report 39%",1.9 times
same,Positive hCG (%),"[1]; RIF patients with elevated Th1/Th2 cell ratio, treatment group n = 25, tacrolimus 1-3 mg daily for 16 days from two days before ET",64%
same,birth weight (mean±SD),"[1]; newborns of the treatment group, as given in the text","2,995±400 g"
same,Spontaneous abortion rate (%),"[1]; pregnant patients of the treatment group, one miscarriage at 10 weeks gestation",6.3%
same,Side effect from tacrolimus,"[1]; treatment group n = 25, 1-3 mg daily for 16 days",no significant side effect; also recorded: no one reported side effect
same,Clinical pregnancy rate per ET (%),[1]; [7],64.0%
same,Live birth rate (%),[1]; [7],60%
same,Implantation rate (%),"[1]; treatment group n = 25, tacrolimus 1-3 mg daily for 16 days from two days before ET, 16/35",45.7%
same,APGAR score at 1 minutes after birth,[1]; [8],8.3±0.5
same,APGAR score at 5 minutes after birth,[1]; [8],9.2±0.5
same,Gestational days to delivery,[1]; [8],279.5 ± 10.6 days
same,Umbilical cord gas analysis (pH),[1]; [8],7.2 ± 0.05 pH
same,Birth weight (gm),"[1]; treatment group, 15 newborns, mean ± standard deviation (Table 4)","3,021 ± 371 gm"
same,APGAR score at 1 minutes after birth,[1]; [9],8.3 ± 0.5
same,APGAR score at 5 minutes after birth,[1]; [9],9.2 ± 0.6
same,Gestational days to delivery,[1]; [9],279.5 ± 10.6 days
same,Live birth rate of fresh ET (%),"[1]; treatment group, fresh ET (n = 9)",33.3%
same,Clinical pregnancy of fresh ET (%),"[1]; treatment group, fresh ET (n = 9), tacrolimus 1-3 mg daily for 16 days",44.4%
same,Live birth rate of thawed ET (%),"[1]; treatment group, frozen-thawed ET (n = 16)",75%
same,Clinical pregnancy of cryo-thaw ET (%),"[1]; treatment group, frozen-thawed ET (n = 16), tacrolimus 1-3 mg daily for 16 days",75%
same,Number of newborns,[1]; women with multiple implantation failures (5 or more) treated with tacrolimus,15
same,APGAR Score 1 minute,[2]; Full term birth (8 babies),8.0 ± 1.0
same,APGAR Score 5 minute,[2]; Full term birth (8 babies),9.0 ± 0.5
same,Birth weight (gm),[2]; Full term birth (8 babies),3149 ± 234 gm
same,Complications of mother,[2]; Full term birth (8 babies),0
same,Complications of newborn baby,[2]; Full term birth (8 babies),0
same,Number of gestational days,[2]; Full term birth (8 babies),279.3 ± 6.0 days
same,Umbilical cord blood pH,[2]; Full term birth (8 babies),7.3 ± 0.12
same,APGAR Score 1 minute,[2]; Premature birth case,6
same,APGAR Score 5 minute,[2]; Premature birth case,8
same,Birth weight (gm),[2]; Premature birth case,748 gm
same,Number of gestational days,[2]; Premature birth case,208 days
same,Umbilical cord blood pH,[2]; Premature birth case,7.304
same,Complications of newborn baby,"[2]; Premature birth case, Low birth weight baby",1 (Low birth
same,Complications of mother,"[2]; Premature birth case, Pregnancy-induced hypertension",1 (Pregnancy-
same,Number of newborn babies (n): Miscarriage,[2]; [10],2 n
same,Number of newborn babies (n): Premature birth,[2]; [10],1 n
same,neonatal death rate,[3]; [11],2%
same,still born rate,[3]; [11],2%
same,obstetrical complications: diabetes during pregnancy,[3]; [12],8%
same,obstetrical complications: hypertension,[3]; [12],56%
same,obstetrical complications: infection,[3]; [12],22%
same,obstetrical complications: preeclampsia,[3]; [12],32%
same,obstetrical complications: spontaneous abortion,[3]; [12],26%
